Patent US10131652B2, “Pyrimidinyloxy benzene derivatives as herbicides” (E. I. DU PONT DE NEMOURS AND COMPANY, priority 2014, dated 2018)

Assays:
Experiment in all cases: Test D pre-/postemergence plant response
Type in all cases: in vivo
[1] = system: morningglory (Ipomoea coccinea); conditions: Postemergence; for Morningglory plant response rating: 31 g ai/ha, scale 0 to 100 (0 no effect, 100 complete control); for Plant response rating, Morningglory: scale 0 to 100, 0 no effect, 100 complete control
Summary of the method: (§1)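 Seeds were planted in a loam and sand blend and sprayed preemergence. In parallel, seedlings grown in peat moss/vermiculite medium were sprayed postemergence at 2 to 18 cm height. Both used a surfactant-containing non-phytotoxic solvent. Greenhouse ratings at 13 to 15 days used a 0–100 control scale.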

[2] = system: waterhemp (common waterhemp, Amaranthus rudis); conditions: Postemergence; for Waterhemp plant response rating: 31 g ai/ha, scale 0 to 100 (0 no effect, 100 complete control); for Plant response rating, Waterhemp: scale 0 to 100, 0 no effect, 100 complete control
Summary of the method: as §1

[3] = system: oilseed rape (Brassica napus); conditions: Postemergence; for Oilseed Rape plant response rating: 31 g ai/ha, scale 0 to 100 (0 no effect, 100 complete control); for Plant response rating, Oilseed Rape: scale 0 to 100, 0 no effect, 100 complete control
Summary of the method: as §1

[4] = system: Italian ryegrass (Lolium multiflorum); conditions: Postemergence; for Ryegrass, Italian plant response rating: 31 g ai/ha, scale 0 to 100 (0 no effect, 100 complete control); for Plant response rating, Ryegrass, Italian: scale 0 to 100, 0 no effect, 100 complete control
Summary of the method: as §1

[5] = system: blackgrass (Alopecurus myosuroides); conditions: Postemergence; for Blackgrass plant response rating: scale 0 to 100 (0 no effect, 100 complete control); for Plant response rating, Blackgrass: scale 0 to 100, 0 no effect, 100 complete control
Summary of the method: as §1

[6] = system: large (Lg) crabgrass (Digitaria sanguinalis); conditions: Postemergence; for Crabgrass, Large plant response rating: scale 0 to 100 (0 no effect, 100 complete control); for Plant response rating, Crabgrass, Large: scale 0 to 100, 0 no effect, 100 complete control
Summary of the method: as §1

[7] = system: pigweed (Amaranthus retroflexus); conditions: Postemergence; for Pigweed plant response rating: 31 g ai/ha, scale 0 to 100 (0 no effect, 100 complete control); for Plant response rating, Pigweed: scale 0 to 100, 0 no effect, 100 complete control
Summary of the method: as §1

[8] = system: galium (catchweed bedstraw, Galium aparine); conditions: Postemergence; for Galium plant response rating: 31 g ai/ha, scale 0 to 100 (0 no effect, 100 complete control); for Plant response rating, Galium: scale 0 to 100, 0 no effect, 100 complete control
Summary of the method: as §1

soybean (Glycine max) = conditions: Postemergence; for Soybean plant response rating: 31 g ai/ha, scale 0 to 100 (0 no effect, 100 complete control); for Plant response rating, Soybean: scale 0 to 100, 0 no effect, 100 complete control
Summary of the method: as §1

[9] = system: giant foxtail (Setaria faberii); conditions: Postemergence; for Foxtail, Giant plant response rating: scale 0 to 100 (0 no effect, 100 complete control); for Plant response rating, Foxtail, Giant: scale 0 to 100, 0 no effect, 100 complete control
Summary of the method: as §1

[10] = system: barnyardgrass (Echinochloa crus-galli); conditions: Postemergence; for Barnyardgrass plant response rating: scale 0 to 100 (0 no effect, 100 complete control); for Plant response rating, Barnyardgrass: scale 0 to 100, 0 no effect, 100 complete control
Summary of the method: as §1

[11] = system: johnsongrass (Sorghum halepense); conditions: Postemergence; for Johnsongrass plant response rating: 31 g ai/ha, scale 0 to 100 (0 no effect, 100 complete control); for Plant response rating, Johnsongrass: scale 0 to 100, 0 no effect, 100 complete control
Summary of the method: as §1

[12] = system: ragweed (common ragweed, Ambrosia elatior); conditions: Postemergence; for Ragweed plant response rating: 31 g ai/ha, scale 0 to 100 (0 no effect, 100 complete control); for Plant response rating, Ragweed: scale 0 to 100, 0 no effect, 100 complete control
Summary of the method: as §1

[13] = system: velvetleaf (Abutilon theophrasti); conditions: Postemergence; for Velvetleaf plant response rating: 31 g ai/ha, scale 0 to 100 (0 no effect, 100 complete control); for Plant response rating, Velvetleaf: scale 0 to 100, 0 no effect, 100 complete control
Summary of the method: as §1

[14] = system: winter wheat (Triticum aestivum); conditions: Postemergence; for Wheat plant response rating: 31 g ai/ha, scale 0 to 100 (0 no effect, 100 complete control); for Plant response rating, Wheat: scale 0 to 100, 0 no effect, 100 complete control
Summary of the method: as §1

corn (Zea mays) = conditions: Postemergence; for Corn plant response rating: scale 0 to 100 (0 no effect, 100 complete control); for Plant response rating, Corn: scale 0 to 100, 0 no effect, 100 complete control
Summary of the method: as §1

[15] = system: lambsquarters (Chenopodium album); conditions: Postemergence; for Lambsquarters plant response rating: 31 g ai/ha, scale 0 to 100 (0 no effect, 100 complete control); for Plant response rating, Lambsquarters: scale 0 to 100, 0 no effect, 100 complete control
Summary of the method: as §1

[16] = system: yellow nutsedge (Cyperus esculentus); conditions: Postemergence; for Nutsedge, Yellow plant response rating: 31 g ai/ha, scale 0 to 100 (0 no effect, 100 complete control); for Plant response rating, Nutsedge, Yellow: scale 0 to 100, 0 no effect, 100 complete control
Summary of the method: as §1

Structure (SMILES): FC(F)(F)c1cc(-c2c(Cl)cccc2Oc2ncc(Cl)cn2)no1 [Compound 169]
- Morningglory plant response rating [1]: 15
- Plant response rating, Morningglory ([1]; 62 g ai/ha): 55
- Plant response rating, Morningglory ([1]; 125 g ai/ha): 65
- Waterhemp plant response rating [2]: 90
- Plant response rating, Waterhemp ([2]; 62 g ai/ha): 90
- Plant response rating, Waterhemp ([2]; 125 g ai/ha): 90
- Oilseed Rape plant response rating [3]: 5
- Plant response rating, Oilseed Rape ([3]; 62 g ai/ha): 10
- Plant response rating, Oilseed Rape ([3]; 125 g ai/ha): 60
- Ryegrass, Italian plant response rating [4]: 0
- Plant response rating, Ryegrass, Italian ([4]; 62 g ai/ha): 5
- Plant response rating, Ryegrass, Italian ([4]; 125 g ai/ha): 15
- Blackgrass plant response rating ([5]; 16 g ai/ha): 0
- Blackgrass plant response rating ([5]; 31 g ai/ha): 0
- Plant response rating, Blackgrass ([5]; 62 g ai/ha): 0
- Plant response rating, Blackgrass ([5]; 125 g ai/ha): 25
- Crabgrass, Large plant response rating ([6]; 16 g ai/ha): 5
- Crabgrass, Large plant response rating ([6]; 31 g ai/ha): 5
- Plant response rating, Crabgrass, Large ([6]; 62 g ai/ha): 10
- Plant response rating, Crabgrass, Large ([6]; 125 g ai/ha): 10
- Pigweed plant response rating [7]: 80
- Plant response rating, Pigweed ([7]; 62 g ai/ha): 80
- Plant response rating, Pigweed ([7]; 125 g ai/ha): 98
- Galium plant response rating [8]: 70
- Plant response rating, Galium ([8]; 62 g ai/ha): 70
- Plant response rating, Galium ([8]; 125 g ai/ha): 75
- Soybean plant response rating (soybean (Glycine max)): 5
- Plant response rating, Soybean (soybean (Glycine max); 62 g ai/ha): 15
- Plant response rating, Soybean (soybean (Glycine max); 125 g ai/ha): 25
- Foxtail, Giant plant response rating ([9]; 16 g ai/ha): 0
- Foxtail, Giant plant response rating ([9]; 31 g ai/ha): 5
- Plant response rating, Foxtail, Giant ([9]; 62 g ai/ha): 25
- Plant response rating, Foxtail, Giant ([9]; 125 g ai/ha): 55
- Barnyardgrass plant response rating ([10]; 16 g ai/ha): 5
- Barnyardgrass plant response rating ([10]; 31 g ai/ha): 5
- Plant response rating, Barnyardgrass ([10]; 62 g ai/ha): 5
- Plant response rating, Barnyardgrass ([10]; 125 g ai/ha): 5
- Johnsongrass plant response rating [11]: 0
- Plant response rating, Johnsongrass ([11]; 62 g ai/ha): 0
- Plant response rating, Johnsongrass ([11]; 125 g ai/ha): 5
- Ragweed plant response rating [12]: 5
- Plant response rating, Ragweed ([12]; 62 g ai/ha): 25
- Plant response rating, Ragweed ([12]; 125 g ai/ha): 35
- Velvetleaf plant response rating [13]: 10
- Plant response rating, Velvetleaf ([13]; 62 g ai/ha): 20
- Plant response rating, Velvetleaf ([13]; 125 g ai/ha): 30
- Wheat plant response rating [14]: 5
- Plant response rating, Wheat ([14]; 62 g ai/ha): 10
- Plant response rating, Wheat ([14]; 125 g ai/ha): 10
- Corn plant response rating (corn (Zea mays); 16 g ai/ha): 0
- Corn plant response rating (corn (Zea mays); 31 g ai/ha): 5
- Plant response rating, Corn (corn (Zea mays); 62 g ai/ha): 10
- Plant response rating, Corn (corn (Zea mays); 125 g ai/ha): 10
- Lambsquarters plant response rating [15]: 40
- Plant response rating, Lambsquarters ([15]; 62 g ai/ha): 35
- Plant response rating, Lambsquarters ([15]; 125 g ai/ha): 80
- Nutsedge, Yellow plant response rating [16]: 0
- Plant response rating, Nutsedge, Yellow ([16]; 62 g ai/ha): 0
- Plant response rating, Nutsedge, Yellow ([16]; 125 g ai/ha): 5

Structure (SMILES): FC(F)(F)c1cc(-c2c(Br)cccc2Oc2ncc(Cl)cn2)no1 [Compound 170]
- Morningglory plant response rating [1]: 30
- Plant response rating, Morningglory ([1]; 62 g ai/ha): 70
- Plant response rating, Morningglory ([1]; 125 g ai/ha): 98
- Waterhemp plant response rating [2]: 80
- Plant response rating, Waterhemp ([2]; 62 g ai/ha): 100
- Plant response rating, Waterhemp ([2]; 125 g ai/ha): 85
- Oilseed Rape plant response rating [3]: 5
- Plant response rating, Oilseed Rape ([3]; 62 g ai/ha): 40
- Plant response rating, Oilseed Rape ([3]; 125 g ai/ha): 25
- Ryegrass, Italian plant response rating [4]: 0
- Plant response rating, Ryegrass, Italian ([4]; 62 g ai/ha): 5
- Plant response rating, Ryegrass, Italian ([4]; 125 g ai/ha): 5
- Blackgrass plant response rating ([5]; 16 g ai/ha): 0
- Blackgrass plant response rating ([5]; 31 g ai/ha): 0
- Plant response rating, Blackgrass ([5]; 62 g ai/ha): 5
- Plant response rating, Blackgrass ([5]; 125 g ai/ha): 5
- Crabgrass, Large plant response rating ([6]; 16 g ai/ha): 5
- Crabgrass, Large plant response rating ([6]; 31 g ai/ha): 5
- Plant response rating, Crabgrass, Large ([6]; 62 g ai/ha): 5
- Plant response rating, Crabgrass, Large ([6]; 125 g ai/ha): 10
- Pigweed plant response rating [7]: 90
- Plant response rating, Pigweed ([7]; 62 g ai/ha): 98
- Plant response rating, Pigweed ([7]; 125 g ai/ha): 98
- Galium plant response rating [8]: 50
- Plant response rating, Galium ([8]; 62 g ai/ha): 65
- Plant response rating, Galium ([8]; 125 g ai/ha): 80
- Soybean plant response rating (soybean (Glycine max)): 10
- Plant response rating, Soybean (soybean (Glycine max); 62 g ai/ha): 10
- Plant response rating, Soybean (soybean (Glycine max); 125 g ai/ha): 35
- Foxtail, Giant plant response rating ([9]; 16 g ai/ha): 5
- Foxtail, Giant plant response rating ([9]; 31 g ai/ha): 30
- Plant response rating, Foxtail, Giant ([9]; 62 g ai/ha): 40
- Plant response rating, Foxtail, Giant ([9]; 125 g ai/ha): 40
- Barnyardgrass plant response rating ([10]; 16 g ai/ha): 0
- Barnyardgrass plant response rating ([10]; 31 g ai/ha): 0
- Plant response rating, Barnyardgrass ([10]; 62 g ai/ha): 5
- Plant response rating, Barnyardgrass ([10]; 125 g ai/ha): 5
- Johnsongrass plant response rating [11]: 0
- Plant response rating, Johnsongrass ([11]; 62 g ai/ha): 0
- Plant response rating, Johnsongrass ([11]; 125 g ai/ha): 5
- Ragweed plant response rating [12]: 5
- Plant response rating, Ragweed ([12]; 62 g ai/ha): 10
- Plant response rating, Ragweed ([12]; 125 g ai/ha): 10
- Velvetleaf plant response rating [13]: 5
- Plant response rating, Velvetleaf ([13]; 62 g ai/ha): 25
- Plant response rating, Velvetleaf ([13]; 125 g ai/ha): 25
- Wheat plant response rating [14]: 20
- Plant response rating, Wheat ([14]; 62 g ai/ha): 10
- Plant response rating, Wheat ([14]; 125 g ai/ha): 15
- Corn plant response rating (corn (Zea mays); 16 g ai/ha): 5
- Corn plant response rating (corn (Zea mays); 31 g ai/ha): 5
- Plant response rating, Corn (corn (Zea mays); 62 g ai/ha): 5
- Plant response rating, Corn (corn (Zea mays); 125 g ai/ha): 5
- Lambsquarters plant response rating [15]: 40
- Plant response rating, Lambsquarters ([15]; 62 g ai/ha): 40
- Plant response rating, Lambsquarters ([15]; 125 g ai/ha): 80
- Nutsedge, Yellow plant response rating [16]: 5
- Plant response rating, Nutsedge, Yellow ([16]; 62 g ai/ha): 5
- Plant response rating, Nutsedge, Yellow ([16]; 125 g ai/ha): 10
